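Cultured in 96-well plates, cells were exposed to test compound for 48 hours across five concentrations. Abbreviation: GI50, concentration required for 50% inhibition of growth. The concentration for full growth arrest is given as TGI.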

One assay relates to P388 leukemia. Put plainly: NCI tumour cell line growth inhibition, 48 h.
The subject of the next assay is SN12K1 renal. Briefly: NCI tumour cell line growth inhibition, 48 h.

Consider `C=C1C(C)C2C(Cc3ccccc3)NC(=O)C23C(OC(C)=O)C=CC(C)(O)C(=O)C(C)C/C=C/C3C1O` (stereo not given), for which the results for the TGI in the assay on P388 leukemia and in the assay with SN12K1 renal were 51.7 µM and 58.3 µM, respectively.

In the case of `CC1OC(O[C@@H]2C=C3CC[C@@H]4[C@H](CC[C@]5(C)[C@@H](c6ccc(=O)oc6)CC[C@]45O)[C@@]3(C)CC2)C(O)C(O)C1O` (stereo not given in full), in the assay on P388 leukemia, the TGI is > 74.8 µM. In the assay on SN12K1 renal, the GI50 was 0.000941 µM and the TGI came out at 0.003 µM.

Values taken from PubChem BioAssay (NCI).
